The subject of assay [1] is Klebsiella 8085. Nature of the assay: In vivo ED50, intraperitoneal infection of white mice (Table 2). Particulars: sc; Klebsiella 8085 i.p. infection; s.c. 15 minutes before infection; 50% survival at 24 hours.
The subject of assay [2] is Escherichia coli A261. Put plainly: MIC, plate test (Table 1). It counts as cell-based. Particulars: 37°C, 24 hours, read-out: Minimum inhibitory concentration (MIC). Here is the method: (§1) The minimum inhibitory concentration (MIC) was determined in the plate test on a complete nutrient base of the following composition: 10 g of proteose-peptone, 10 g of veal infusion, 2 g of dextrose, 3 g of sodium chloride, 2 g of disodium phosphate, 1 g of sodium acetate, 0.01 g of adenine sulphate, 0.01 g of guanine hydrochloride, 0.01 g of uracil, 0.01 g. of xantin, 12 g of agar-agar and 1 liter of water.
(§2) The incubation temperature was 37°C and the incubation time was 24 hours.

Assay [3] deals with Escherichia coli C165. Put plainly: MIC, plate test (Table 1). Format: cell-based. Particulars: 37°C, 24 hours, read-out: Minimum inhibitory concentration (MIC). The method, then:
as §1, §2

Assay [4] has as its system Klebsiella 63. Nature of the assay: MIC, plate test (Table 1). It counts as cell-based. Particulars: 37°C, 24 hours, read-out: Minimum inhibitory concentration (MIC). Here is the method:
as §1, §2

In assay [5] the test system is Klebsiella 8085. Nature of the assay: MIC, plate test (Table 1). The following applies: 37°C, 24 hours, read-out: Minimum inhibitory concentration (MIC). It counts as cell-based. The method, then: as §1, §2
For assay [6], the system named is Proteus vulgaris 1017. Nature of the assay: MIC, plate test (Table 1). Format: cell-based. Particulars: 37°C, 24 hours, read-out: Minimum inhibitory concentration (MIC). Here is the method: as §1, §2
Assay [7] deals with Pseudomonas aeruginosa B. Nature of the assay: MIC, plate test (Table 1). It counts as cell-based. Particulars: 37°C, 24 hours, read-out: Minimum inhibitory concentration (MIC). The method, then: as §1, §2
For assay [8], the system named is Pseudomonas aeruginosa w. Nature of the assay: MIC, plate test (Table 1). Format: cell-based. Particulars: 37°C, 24 hours, read-out: Minimum inhibitory concentration (MIC). Here is the method: as §1, §2
Assay [9] concerns Salmonella species. Nature of the assay: MIC, plate test (Table 1). Format: cell-based. The following applies: 37°C, 24 hours, read-out: Minimum inhibitory concentration (MIC). Here is the method:
as §1, §2

Assay [10] deals with Staphylococcus aureus 133. Nature of the assay: MIC, plate test (Table 1). It counts as cell-based. The following applies: 37°C, 24 hours, read-out: Minimum inhibitory concentration (MIC). Here is the method:
as §1, §2

For assay [11], the system named is Streptococcus pyogenes. Put plainly: MIC, plate test (Table 1). Format: cell-based. The following applies: with serum, 37°C, 24 hours, read-out: Minimum inhibitory concentration (MIC). Here is the method: as §1, §2
Assay [12] relates to Mycoplasma bovirhinis. Put plainly: MIC, series dilution test, PPLO-medium (Table 1). Format: cell-based. The following applies: 37°C, 18, 24 and 48 hours, read-out: Minimum inhibitory concentration (MIC). Here is the method: (§3) The mycoplasmae were tested in the series dilution test (PPLO-medium) at 37°C, with observations after 18, 24 and 48 hours.
The subject of assay [13] is Mycoplasma gallisepticum. Nature of the assay: MIC, series dilution test, PPLO-medium (Table 1). Format: cell-based. Particulars: Mycoplasmoides gallisepticum, 37°C, 18, 24 and 48 hours, read-out: Minimum inhibitory concentration (MIC). Here is the method:
as §3

In assay [14] the test system is Mycoplasma granularum. Put plainly: MIC, series dilution test, PPLO-medium (Table 1). It counts as cell-based. The following applies: Acholeplasma granularum, 37°C, 18, 24 and 48 hours, read-out: Minimum inhibitory concentration (MIC). Here is the method:
as §3

The subject of assay [15] is Mycobacterium tuberculosis. Nature of the assay: MIC, series dilution test, Jenssen egg medium. Format: cell-based. The following applies: 37°C, read-out: minimum inhibitory concentration. The method, then: The compounds of Examples 12 and 13 show minimum inhibitory concentrations of 32 γ/ml of nutrient medium in the series dilution test, Jenssen egg medium, 37°C, against Mycobacterium tuberculosis.

Assay [16] relates to Escherichia coli C165. Nature of the assay: In vivo ED50, intraperitoneal infection of white mice (Table 2). The following applies: sc; Escherichia coli C165 i.p. infection; s.c. 15 minutes before infection; 50% survival at 24 hours.
The subject of assay [17] is Escherichia coli A 261. Nature of the assay: Turbidity test in Mueller-Hinton nutrient solution. It counts as cell-based. The following applies: 100 γ/ml, 24 hours, 37°C.
Assay [18] deals with Escherichia coli 14. Nature of the assay: Turbidity test in Mueller-Hinton nutrient solution. It counts as cell-based. Particulars: 100 γ/ml, 24 hours, 37°C.
Assay [19] has as its system Escherichia coli C 165. Nature of the assay: Turbidity test in Mueller-Hinton nutrient solution. It counts as cell-based. Particulars: 100 γ/ml, 24 hours, 37°C.
Assay [20] concerns Proteus vulgaris 1017. Nature of the assay: Turbidity test in Mueller-Hinton nutrient solution. Format: cell-based. Particulars: 100 γ/ml, 24 hours, 37°C.
The subject of assay [21] is Klebsiella K 10. Put plainly: Turbidity test in Mueller-Hinton nutrient solution. The following applies: 100 γ/ml, 24 hours, 37°C. It counts as cell-based.
Assay [22] relates to Klebsiella K 63. Put plainly: Turbidity test in Mueller-Hinton nutrient solution. Format: cell-based. The following applies: 100 γ/ml, 24 hours, 37°C.
Assay [23] concerns Salmonella species. Nature of the assay: Turbidity test in Mueller-Hinton nutrient solution. It counts as cell-based. The following applies: 100 γ/ml, 24 hours, 37°C. The method, then:
(§4) 100 γ/ml of the compounds according to the invention are dissolved in Mueller-Hinton nutrient solution, with addition of 0.1% of glucose. The nutrient solution contains […] microbes per ml. The mixture is incubated in glass test tubes for 24 hours at 37°C and after this time the degree of turbidity is determined.

The test system of assay [24] is Shigella species. Nature of the assay: Turbidity test in Mueller-Hinton nutrient solution. It counts as cell-based. Particulars: 100 γ/ml, 24 hours, 37°C. Here is the method: as §4
In assay [25] the test system is Enterobacter species. Put plainly: Turbidity test in Mueller-Hinton nutrient solution. Format: cell-based. The following applies: 100 γ/ml, 24 hours, 37°C.
The subject of assay [26] is Neisseria catarrhalis species. Nature of the assay: Turbidity test in Mueller-Hinton nutrient solution. It counts as cell-based. The following applies: 100 γ/ml, 24 hours, 37°C.
The test system of assay [27] is Diplococcus pneumoniae species. Put plainly: Turbidity test in Mueller-Hinton nutrient solution. Particulars: 100 γ/ml, 24 hours, 37°C. It counts as cell-based.
Assay [28] concerns Streptococcus pyogenes W. Put plainly: Turbidity test in Mueller-Hinton nutrient solution. The following applies: 100 γ/ml, 24 hours, 37°C. Format: cell-based.
Assay [29] relates to Enterococcus species. Put plainly: Turbidity test in Mueller-Hinton nutrient solution. Particulars: 100 γ/ml, 24 hours, 37°C. Format: cell-based.
For assay [30], the system named is Lactobacillus species. Nature of the assay: Turbidity test in Mueller-Hinton nutrient solution. Format: cell-based. The following applies: 100 γ/ml, 24 hours, 37°C.
In assay [31] the test system is Serratia species. Put plainly: Turbidity test in Mueller-Hinton nutrient solution. It counts as cell-based. The following applies: 100 γ/ml, 24 hours, 37°C.
Assay [32] has as its system Proteus indole-negative, species. Put plainly: Turbidity test in Mueller-Hinton nutrient solution. It counts as cell-based. The following applies: 100 γ/ml, 24 hours, 37°C.
Assay [33] concerns Proteus indole-positive, species. Put plainly: Turbidity test in Mueller-Hinton nutrient solution. It counts as cell-based. Particulars: 100 γ/ml, 24 hours, 37°C.
Assay [34] concerns Pasteurella pseudotuberculosis. Format: cell-based. The following applies: 100 γ/ml, 24 hours, 37°C.
The subject of assay [35] is Brucella species. It counts as cell-based. Particulars: 100 γ/ml, 24 hours, 37°C.
In assay [36] the test system is Haemophilus influenzae 281. Put plainly: Turbidity test in Mueller-Hinton nutrient solution. The following applies: 100 γ/ml, 24 hours, 37°C. Format: cell-based.
The subject of assay [37] is Bordetella bronchiseptica. Nature of the assay: Turbidity test in Mueller-Hinton nutrient solution. Format: cell-based. The following applies: 100 γ/ml, 24 hours, 37°C.
Assay [38] has as its system Bacteroides species. Put plainly: Turbidity test in Mueller-Hinton nutrient solution. It counts as cell-based. The following applies: 100 γ/ml, 24 hours, 37°C.
Assay [39] relates to Staphylococcus aureus 133. Put plainly: Turbidity test in Mueller-Hinton nutrient solution. Format: cell-based. Particulars: 100 γ/ml, 24 hours, 37°C.
Assay [40] deals with Pseudomonas aeruginosa w. Nature of the assay: Turbidity test in Mueller-Hinton nutrient solution. Format: cell-based. Particulars: 100 γ/ml, 24 hours, 37°C.
The test system of assay [41] is Pseudomonas aeruginosa B. Put plainly: Turbidity test in Mueller-Hinton nutrient solution. Format: cell-based. Particulars: 100 γ/ml, 24 hours, 37°C.
Assay [42] deals with Aeromonas hydrophila species. Put plainly: Turbidity test in Mueller-Hinton nutrient solution. It counts as cell-based. The following applies: 100 γ/ml, 24 hours, 37°C.
Assay [43] deals with Corynebacterium diphtheriae gravis. Nature of the assay: Turbidity test in Mueller-Hinton nutrient solution. The following applies: 100 γ/ml, 24 hours, 37°C. It counts as cell-based.
The subject of assay [44] is Corynebacterium pyogenes M. Nature of the assay: Turbidity test in Mueller-Hinton nutrient solution. Format: cell-based. The following applies: 100 γ/ml, 24 hours, 37°C.
The subject of assay [45] is Clostridium botulinium. Format: cell-based.
Assay [46] relates to Clostridium tetani. It counts as cell-based. Particulars: 100 γ/ml, 24 hours, 37°C.
Assay [47] deals with Borrelia species. Nature of the assay: Turbidity test in Mueller-Hinton nutrient solution. It counts as cell-based. The following applies: 100 γ/ml, 24 hours, 37°C.

≈ marks a conversion by molar mass, not a printed value.

For the compound `O=C(CCl)Nc1n[n+]([O-])c2ccccc2[n+]1[O-]` [Example 9, 3-(N-chloroacetylamino)-benzo-1,2,4-triazine-1,4-di-N-oxide], the ED50 (usually the midpoint of the dose-response relation) in assay [1] was found to be 25 mg/kg.
Consider `CNc1n[n+]([O-])c2ccccc2[n+]1[O-]` [Example 1, 3-(N-methylamino)-benzo-1,2,4-triazine-1,4-di-N-oxide], for which the MIC in assay [2] stood at 8 µg/mL (≈ 41.6 µM); in [3], 8 µg/mL (≈ 41.6 µM); in assay [4] it was 128 µg/mL (≈ 666 µM); in assay [5] it was 8 µg/mL (≈ 41.6 µM); in assay [6], 128 µg/mL (≈ 666 µM); in assay [7], 8 µg/mL (≈ 41.6 µM). The MIC in [8] was 128 µg/mL (≈ 666 µM); in [9], 8 to 16 µg/mL (≈ 41.6 to 83.3 µM); in assay [10], 8 µg/mL (≈ 41.6 µM); in assay [11] it was 128 µg/mL (≈ 666 µM); in assay [12], 1 µg/mL (≈ 5.2 µM); in assay [13], 1 µg/mL (≈ 5.2 µM). Also, the MIC in [14] was determined as 1 µg/mL (≈ 5.2 µM); in assay [15], 32 µg/mL (≈ 167 µM). Further, the ED50 in assay [1] and in assay [16] was 25 mg/kg in each case.
As to `CNC(=O)Nc1n[n+]([O-])c2ccccc2[n+]1[O-]` [Example 12, 1'-[1,4-dioxo-benzo-1,2,4-triazin-3-yl]-3'-methylurea], the MIC in assay [15] turned out to be 32 µg/mL (≈ 136 µM). The turbidity after incubation entry in assay [17], in assay [18], in assay [19], in assay [20], in [21] and in assay [22] was “remained free of turbidity” in each case. Further, the turbidity after incubation result in assay [23], in assay [24], in [25], in assay [26], in assay [27] and in assay [28] was “remained free of turbidity” each time. For the same compound, the turbidity after incubation result in [29], in assay [30], in assay [31], in assay [32], in [33] and in assay [34] was “remained free of turbidity” each time. In addition, the turbidity after incubation entry in assay [35], in assay [36], in [37], in [38], in assay [39] and in assay [40] was “remained free of turbidity” throughout. For the same compound, the turbidity after incubation result in assay [41], in assay [42], in [43], in [44], in [45] and in assay [46] was “remained free of turbidity” throughout. The turbidity after incubation entry in assay [47] was “remained free of turbidity”.
Turning to `NC(=O)Nc1n[n+]([O-])c2ccccc2[n+]1[O-]` [Example 13, 1,4-dioxo-benzo-1,2,4-triazin-3-yl-urea], the MIC in assay [15] was found to be 32 µg/mL (≈ 145 µM). Besides, the turbidity after incubation entry in assay [17], in [18], in assay [19], in assay [20], in assay [21] and in assay [22] was “remained free of turbidity” each time. Moreover, the turbidity after incubation result in assay [23], in assay [24], in assay [25], in assay [26], in [27] and in assay [28] was “remained free of turbidity” throughout. In addition, the turbidity after incubation entry in assay [29], in assay [30], in assay [31], in [32], in [33] and in assay [34] was “remained free of turbidity” in each case. Further, the turbidity after incubation result in [35], in [36], in assay [37], in assay [38], in [39] and in assay [40] was “remained free of turbidity” in each case. The turbidity after incubation result in assay [41], in assay [42], in [43], in assay [44], in [45] and in [46] was “remained free of turbidity” in each case. The turbidity after incubation result in assay [47] was “remained free of turbidity”.

For the origin of these results see patent US3957779A, “Benzo-1,2,4-triazines” (Bayer Aktiengesellschaft, priority 1972, dated 1976).
